The text below walks through data of patent publication US20210000917A1, “METHODS AND COMPOSITION FOR THE TREATMENT OF ALLERGIC ASTHMA” (INSERM (Institut National de la Santé et de la Recherche …, priority 2018, published 2021).

In series [1] the test system is mouse model of HDM-induced asthma. As to the kind of experiment: BAL cell counts by flow cytometry in mouse model of HDM-induced asthma. Format: in vivo, BALB/c female mice. The note with it: 20 μg peptide in Alum subcutaneously on day 30 and day 34, BAL day 38. Here is the method: BALB/c female mice aged 6 to 8 weeks were purchased from Charles River Breeding Laboratories and used for all experiments. The animals were housed in UTE IRS-UN platform (Nantes, France). The mice were maintained under specific pathogen-free, temperature-controlled conditions under a strict 12-hour light-dark cycle and were given free access to food and water. The mice were sensitized on days 0, 7, 14 and 21 by percutaneous application of 500 μg of total extract of Dermatophagoïdes farinae (HDM) (Stallergenes, Antony, France) in 20 μl of dimethylsulfoxide (Sigma- Aldrich, St Louis, Mo.) on the ears without any synthetic adjuvant. The mice were challenged intranasally with 250 μg of HDM (House Dust Mite) in 40 μl of sterile PBS on day 27, 28 and 29 to induce asthma and again on days 35, 36 and 37 to induce asthma exacerbation. Animals were anesthetized with 100 μg of xylazine (ROMPUN 2%, Bayer, Lyon, France, 15 mg/kg) intraperitoneally and 100 μl of ketamine (IMALGENE100, Merial, Lyon, France, 80 mg/kg) for both sensitizations and challenges. […] For dynamic lung resistance measurements, mice were anesthetized with 200 μl of a ketamine-xylazine mix and paralyzed with 100 μl of rocuronium bromide (ESMERON, Organon, Kloosterstraat, The Netherlands, 10 mg/ml) intraperitoneally.
(§1) Derivative peptide (Derp 2.1) was purified as previously described by Chen et al. 1Peptide was injected on day 30 after de third challenge and on day 34 before the fourth challenge. Derp 2.1 was solubilized with sterile PBS to a final concentration of 100 μg/ml. pproximately 200 μl of a solution of Alum (Imject Alum, Thermo Scientific) containing 20 μg of the peptide was injected subcutaneously in the neck of the mice.
One milliliter of sterile PBS was administered to mice through a flexible catheter. Cells and supernatants from the removed fluid were separated by centrifugation. The total cell number was determined by using flow cytometry (see below). Supernatants were stored at −20° C.
For analysis of BAL cells, the following antibodies were used: CD3 PE-Cy7, F4/80 FITC (eBioscience); CCR3 APC (R&D Systems) and Ly6G-PerCP Cy5.5 (BD Biosciences). Stained cells resuspended in PBS were acquired on a BD LSR II (BD Biosciences) and were analyzed on FlowJo software (Tree Star). To study lung, mediastinal lymph nodes (mLN) and spleen T-cell responses, these organs were removed and mechanically disrupted in RPMI 1640 media. Cells were passed through a 40 μm filter. Red blood cells from lung and spleen were lysed with a solution of Red Blood Cells lysis (Sigma Aldrich). Cells from mLN, lung and spleen were transferred to a 96-wells round-bottom plate and were stimulated for 5 hours with a mix containing phorbol 12-myristate 13-acetate (50 ng/ml) and ionomycin (500 ng/ml; Sigma-Aldrich) together. […]

For series [2] the following is noted: cited from earlier work; for in vivo allergenic activity and allergenicity: compared with the Derp 2 allergen; for immunogenicity: in vivo.
The next series relates to Der p 2-specific IgE. As to the kind of experiment: Der p 2-specific IgE level in mouse model of HDM-induced asthma. Format: in vivo, BALB/c female mice. The note with it: 20 μg peptide in Alum subcutaneously on day 30 and day 34; FIG. 1E serum level. Here is the method: BALB/c female mice aged 6 to 8 weeks were purchased from Charles River Breeding Laboratories and used for all experiments. The animals were housed in UTE IRS-UN platform (Nantes, France). The mice were maintained under specific pathogen-free, temperature-controlled conditions under a strict 12-hour light-dark cycle and were given free access to food and water. The mice were sensitized on days 0, 7, 14 and 21 by percutaneous application of 500 μg of total extract of Dermatophagoïdes farinae (HDM) (Stallergenes, Antony, France) in 20 μl of dimethylsulfoxide (Sigma- Aldrich, St Louis, Mo.) on the ears without any synthetic adjuvant. The mice were challenged intranasally with 250 μg of HDM (House Dust Mite) in 40 μl of sterile PBS on day 27, 28 and 29 to induce asthma and again on days 35, 36 and 37 to induce asthma exacerbation. Animals were anesthetized with 100 μg of xylazine (ROMPUN 2%, Bayer, Lyon, France, 15 mg/kg) intraperitoneally and 100 μl of ketamine (IMALGENE100, Merial, Lyon, France, 80 mg/kg) for both sensitizations and challenges. Mice were sacrified by […] injection of dolethal (vetoquinol) on day 39 (FIG. 1A). For dynamic lung resistance measurements, mice were anesthetized with 200 μl of a ketamine-xylazine mix and paralyzed with 100 μl of rocuronium bromide (ESMERON, Organon, Kloosterstraat, The Netherlands, 10 mg/ml) intraperitoneally. […]

For series [3], the system named is mouse model of HDM-induced asthma. As to the kind of experiment: Treg and natural killer cells by flow cytometry in mouse model of HDM-induced asthma. Format: in vivo, BALB/c female mice. The note with it: 20 μg peptide in Alum subcutaneously on day 30 and day 34. As to the method: BALB/c female mice aged 6 to 8 weeks were purchased from Charles River Breeding Laboratories and used for all experiments. The animals were housed in UTE IRS-UN platform (Nantes, France). The mice were maintained under specific pathogen-free, temperature-controlled conditions under a strict 12-hour light-dark cycle and were given free access to food and water. The mice were sensitized on days 0, 7, 14 and 21 by percutaneous application of 500 μg of total extract of Dermatophagoïdes farinae (HDM) (Stallergenes, Antony, France) in 20 μl of dimethylsulfoxide (Sigma- Aldrich, St Louis, Mo.) on the ears without any synthetic adjuvant. The mice were challenged intranasally with 250 μg of HDM (House Dust Mite) in 40 μl of sterile PBS on day 27, 28 and 29 to induce asthma and again on days 35, 36 and 37 to induce asthma exacerbation. Animals were anesthetized with 100 μg of xylazine (ROMPUN 2%, Bayer, Lyon, France, 15 mg/kg) intraperitoneally and 100 μl of ketamine (IMALGENE100, Merial, Lyon, France, 80 mg/kg) for both sensitizations and challenges. […]
For analysis of BAL cells, the following antibodies were used: CD3 PE-Cy7, F4/80 FITC (eBioscience); CCR3 APC (R&D Systems) and Ly6G-PerCP Cy5.5 (BD Biosciences). Stained cells resuspended in PBS were acquired on a BD LSR II (BD Biosciences) and were analyzed on FlowJo software (Tree Star). […]

The test system is the same in series [4]. As to the kind of experiment: Airway hyperresponsiveness measurement (flexiVent, methacholine) in mouse model of HDM-induced asthma. Format: in vivo, BALB/c female mice. The settings on record: for respiratory function (airway resistances and elastance to increasing doses of methacholine): 20 μg peptide in Alum subcutaneously on day 30 and day 34, measured day 38, vs asthmatic-like (HDM) mice. Here is the method:
BALB/c female mice aged 6 to 8 weeks were purchased from Charles River Breeding Laboratories and used for all experiments. The animals were housed in UTE IRS-UN platform (Nantes, France). The mice were maintained under specific pathogen-free, temperature-controlled conditions under a strict 12-hour light-dark cycle and were given free access to food and water. The mice were sensitized on days 0, 7, 14 and 21 by percutaneous application of 500 μg of total extract of Dermatophagoïdes farinae (HDM) (Stallergenes, Antony, France) in 20 μl of dimethylsulfoxide (Sigma- Aldrich, St Louis, Mo.) on the ears without any synthetic adjuvant. The mice were challenged intranasally with 250 μg of HDM (House Dust Mite) in 40 μl of sterile PBS on day 27, 28 and 29 to induce asthma and again on days 35, 36 and 37 to induce asthma exacerbation. Animals were anesthetized with 100 μg of xylazine (ROMPUN 2%, Bayer, Lyon, France, 15 mg/kg) intraperitoneally and 100 μl of ketamine (IMALGENE100, Merial, Lyon, France, 80 mg/kg) for both sensitizations and challenges. Mice were sacrified by […] injection of dolethal (vetoquinol) on day 39 (FIG. 1A). For dynamic lung resistance measurements, mice were anesthetized with 200 μl of a ketamine-xylazine mix and paralyzed with 100 μl of rocuronium bromide (ESMERON, Organon, Kloosterstraat, The Netherlands, 10 mg/ml) intraperitoneally.
as §1
Dynamic lung resistances were measured using a flexiVent (SCIREQ, Emka). Mice were anesthetized and connected via an endotracheal cannula to a flexiVent system. […] Airway resistances wee continuously monitored and recorded according to manufacturer's instructions.

With “Derp2.1: polypeptide having a sequence consisting of amino acids 18 to 70 of SEQ ID NO: 1 (Der p 2 fragment); rDer p 2.1 is the recombinant form from E. coli (DQVDVKDCANHEIKKVLVPGCHGSEPCIIHRGKPFQLEAVFEANQNTKTAKIE; listed as Dermatophagoides pteronyssinus)”, the entries for the “eosinophils in BAL” value in series [1] and in series [1] (listed as derp2.1) were “reduced” and “reduction”, respectively. Besides, the “neutrophils in BAL” value in series [1] is on record as “reduced”; in series [1] (listed as derp2.1), “reduction”. Moreover, the “in vivo allergenic activity and allergenicity” value in series [2] was “less in vivo allergenic activity and allergenicity than the Derp 2 allergen”. Further, the immunogenicity entry in series [2] is listed as “preserved immunogenicity”. Besides, the “Derp2 specific IgE” value in the series with Der p 2-specific IgE is reported as “reduction”. Moreover, in series [3] (FIG. 1F frequency of lung Treg cells), the “regulators lymphocytes T (Treg cells)” value is recorded as “increase”. The natural killer cells result in series [3] (FIG. 1G number of lung natural killer cells) is “reduction”. In addition, the “respiratory function (airway resistances and elastance to increasing doses of methacholine)” value in series [4] is given as “improved”; in series [4] (listed as derp2.1) it was “respiratory improvement”. Also, the “airway hyperresponsiveness and asthma exacerbations” value in series [4] (summary statement comparing Derp 2.1 with Der p 2.2) is “enables to decrease airway hyperresponsiveness and prevent asthma exacerbations”.

B1: Der p 2.2: polypeptide consisting of the amino acid sequence 71 to 146 of SEQ ID NO: 1 (Der p 2 fragment) (protein, listed as Dermatophagoides pteronyssinus)
chain: IKASIDGLEVDVPGIDPNACHYMKCPLVKGQQYDIKYTWNVPKIAPKSENVVVTVKVMGDDGVLACAIATHAKIRD
For B1, in series [2], the “in vivo allergenic activity and allergenicity” value is “less in vivo allergenic activity and allergenicity than the Derp 2 allergen”; the immunogenicity result is listed as “preserved immunogenicity”.
